Several values for one entry are separate records, joined by “and”; a condition that tells them apart may be missing. Equal entries are not always repeated.

Data set [1] concerns lung (A-549) cancer cell line. Nature of the data set: Antiproliferative assay, A-549. Type of data set: cell-based. Particulars: Homo sapiens, A549; read-out: Antiproliferative activity IC50 ± SEM, A-549. The source says:
(§1) The MTT assay ([Al-Wahaibi et al., 2022]; [Mahmoud et al., 2023]) was employed to assess the antiproliferative effects of compounds 3a-h and 5a-g on four human cancer cell lines: colon (HT-29) cancer, pancreatic (Panc-1) cancer, lung (A-549) cancer, and breast (MCF-7) cancer cell lines. Erlotinib was applied as a reference. Table 1 presents the median inhibitory concentration (IC50) and average IC50 (GI50) values for each compound evaluated on the four cancer cell lines.
(§2) Compounds 3a-h and 5a-g were tested for their antiproliferative activities on four human cancer cell lines: colon (HT-29), pancreatic (Panc-1), lung (A-549), and breast (MCF-7) using the MTT assay ([Al-Wahaibi et al., 2022]; [Mahmoud et al., 2023]). Erlotinib was applied as a reference.
(§3) To explore the antiproliferative potential of compounds propidium iodide fluorescence assay was performed using different cell lines such as Panc-1 (pancreas cancer cell line), MCF-7 (breast cancer cell line), HT-29 (colon cancer cell line) and A-549 (epithelial cancer cell line), respectively. To calculate the total nuclear DNA, a fluorescent dye (propidium iodide, PI) is used which can attach to the DNA, thus offering a quick and precise technique. PI cannot pass through the cell membrane and its signal intensity can be considered as directly proportional to quantity of cellular DNA. Cells whose cell membranes are damaged or have changed permeability are counted as dead ones. The assay was performed by seeding the cells of different cell lines at a density of 3000-7500 cells/well (in 200μl medium) in culture plates followed by incubation for 24h at 37 °C in humidified 5%CO2/95% air atmospheric conditions. The medium was removed; the compounds were added to the plates at 10 μM concentrations (in 0.1% DMSO) in triplicates, followed by incubation for 48h. DMSO (0.1%) was used as control. After incubation, medium was removed followed by the addition of PI (25 μl, 50μg/mL in water/medium) to each well of the plates. At -80 °C, the plates were allowed to freeze for 24 h, followed by thawing at 25 °C. A fluorometer (Polar-Star BMG Tech) was used to record the readings at excitation and emission wavelengths of 530 and 620 nm for each well. The percentage cytotoxicity of compounds was calculated using the following formula: […]

Data set [2] deals with breast (MCF-7) cancer cell line. Briefly: Antiproliferative assay, MCF-7. Type of data set: cell-based. Particulars: Homo sapiens, MCF7; read-out: Antiproliferative activity IC50 ± SEM, MCF-7.
From the text: as §1, §2, §3

Data set [3] relates to pancreatic (Panc-1) cancer cell line. Briefly: Antiproliferative assay, Panc-1. Type of data set: cell-based. As to conditions: Homo sapiens, read-out: Antiproliferative activity IC50 ± SEM, Panc-1.
From the text: as §1, §2, §3

Data set [4] concerns colon (HT-29) cancer cell line. Nature of the data set: Antiproliferative assay, HT-29. Type of data set: cell-based. Particulars: Homo sapiens, read-out: Antiproliferative activity IC50 ± SEM, HT-29.
Data set [5] concerns four human cancer cell lines (A-549, MCF-7, Panc-1, HT-29). Nature of the data set: Antiproliferative assay, average over four cancer cell lines. It counts as cell-based. Particulars: for GI50: Homo sapiens, average IC50 over the four cancer cell lines.
The test system of a further data set is Caspase-3. Briefly: Caspase-3 activation assay. Particulars: MCF-7 cells. Type of data set: cell-based, human. The procedure:
(§4) Refer to Supplementary Appendix A.
Allow all reagents to reach room temperature before use. Gently mix all liquid reagents prior to use. Determine the number of 8-well strips needed for the assay. Insert these in the frame(s) for current use. Add 100 μl of the Standard Diluent Buffer to the zero standard wells. Well(s) reserved for chromogen blank should be left empty. Add 100 μl of standards and controls or diluted samples to the appropriate microtiter wells. The sample dilution chosen should be optimized for each experimental system. Tap gently on side of plate to mix. Cover wells with plate cover and incubate for 2 hours at room temperature. Thoroughly aspirate or decant solution from wells and discard the liquid, Wash wells 4 times. […] Tap gently on the side of the plate to mix. Cover plate with plate cover and incubate for 1 hour at room temperature. Thoroughly aspirate or decant solution from wells and discard the liquid, Wash wells 4 times. Add 100 μl Anti-Rabbit IgG HRP Working Solution to each well except the chromogen blank(s). Prepare the working dilution as described in Preparing IgG HRP. Cover wells with the plate cover and incubate for 30 minutes at room temperature. Thoroughly aspirate or decant solution from wells and discard the liquid. Wash wells 4 times. Add 100 μl of Stabilized Chromogen to each well. The liquid in the wells will begin to turn blue. Incubate for 30 minutes at room temperature and in the dark. The incubation time for chromogen substrate is often determined by the microtiter plate reader used. Many plate readers have the capacity to record a maximum optical density (O.D.) of 2.0. The O.D. values should be monitored, and the substrate reaction stopped before the O.D. of the positive wells exceeds the limits of the instrument. The O.D. values at 450 nm can only be read after the Stop Solution has been added to each well. […] Add 100 μl of Stop Solution to each well. Tap side of plate gently to mix. The solution in the wells should change from blue to yellow. Read the absorbance of each well at 450 nm having blanked the plate reader against a chromogen blank composed of 100 μl each of Stabilized Chromogen and Stop Solution. Read the plate within 2 hours after adding the Stop Solution. Use a curve fitting software to generate the standard curve. […] Read the concentrations for unknown samples and controls from the standard curve. Multiply value(s) obtained for sample(s) by the appropriate dilution factor to correct for the dilution in step 3.

For another data set, the system named is Caspase-8. Briefly: Caspase-8 activation assay. Type of data set: cell-based, human. Particulars: MCF-7 cells. The method, then:
as §4
(§5) (Cells are Plated in a density of 1.2 – 1.8 × 10,000 cells/well in a volume of 100µl complete growth medium + 100 ul of the tested compound per well in a 96-well plate for 24 hours before the enzyme assay for Tubulin.). The absorbance of each microwell was read on a spectro-photometer at 450 nm. A standard curve is prepared from 7human Caspase-8 standard dilutions and human Caspase-8 concentration determined.

The subject of the next data set is Caspase-9. Nature of the data set: Caspase-9 activation assay. Type of data set: cell-based, human. Particulars: MCF-7 cells. The procedure:
To elucidate the apoptotic mechanism of compounds 3d and 5a, whether via the intrinsic or extrinsic pathway, their impact on caspase-8 and caspase-9 was evaluated.
RPMI 1640 with 10% FBS was used to assist the cells grow at 37 °C, and then the cells were treated with the compounds being studied to check the activity of caspase-3, -8, and -9 ([Hisham et al., 2019]). Refer to Supplementary Appendix A.
as §5, with “Cells were obtained from American Type Culture Collection, cells were grown in RPMI 1640 containing 10% fetal bovine serum at 37°C, stimulated with the compounds to be tested for caspase8, and lysed with Cell Extraction Buffer. This lysate was diluted in Standard Diluent Buffer over the range of the assay and measured for human active caspase-8 content. (Cells” for “(Cells”

A further data set concerns Bax. Briefly: Bax level assay. Particulars: MCF-7 cells.
A further data set has as its system Bcl-2. Nature of the data set: Bcl-2 level assay. As to conditions: MCF-7 cells.
A further data set relates to Cytochrome C. Nature of the data set: Cytochrome C assay. As to conditions: MCF-7 cells.
The target of the next data set is EGFR (Homo sapiens, UniProt P00533). Nature of the data set: EGFR inhibitory assay (EGFR-TK test). Particulars: EGFR inhibition IC50 ± SEM.
For the next data set, the target named is HER-2 (Homo sapiens, UniProt P04626). Briefly: HER-2 inhibitory assay (ADP-Glo kinase assay).
The nature of data set [6]: Cell viability assay (MTT), normal mammary cells. Particulars: human, MCF-10A normal mammary epithelial cells.
Protocol: (§6) MTT assay was performed to investigate the effect of the synthesized compounds on mammary epithelial cells (MCF-10A). The cells were propagated in medium consisting of Ham's F-12 medium/ Dulbecco's modified Eagle's medium (DMEM) (1:1) supplemented with 10% foetal calf serum, 2 mM glutamine, insulin (10 μg/mL), hydrocortisone (500 ng/mL) and epidermal growth factor (20 ng/mL). Trypsin ethylenediamine tetra acetic acid (EDTA) was used to passage the cells after every 2-3 days. 96-well flat-bottomed cell culture plates were used to seed the cells at a density of 10^4 cells mL^-1. The medium was aspirated from all the wells of culture plates after 24 h followed by the addition of synthesized compounds (in 200 μL medium to yield a final concentration of 0.1% (v/v) dimethyl sulfoxide) into individual wells of the plates. Four wells were designated to a single compound. The plates were allowed to incubate at 37°C for 96 h. Afterwards, the medium was aspirated and 3-[4,5-dimethylthiazol-2-yl]-2,5-diphenyltetrazolium bromide (MTT) (0.4 mg/mL) in medium was added to each well and subsequently incubated for 3 h. The medium was aspirated and 150 μL dimethyl sulfoxide (DMSO) was added to each well. The plates were vortexed followed by the measurement of absorbance at 540 nm on a microplate reader.
The next data set can be described thus: in vitro. Particulars: human.

Chain of HER-2 (P04626 676-1255 limits assumed): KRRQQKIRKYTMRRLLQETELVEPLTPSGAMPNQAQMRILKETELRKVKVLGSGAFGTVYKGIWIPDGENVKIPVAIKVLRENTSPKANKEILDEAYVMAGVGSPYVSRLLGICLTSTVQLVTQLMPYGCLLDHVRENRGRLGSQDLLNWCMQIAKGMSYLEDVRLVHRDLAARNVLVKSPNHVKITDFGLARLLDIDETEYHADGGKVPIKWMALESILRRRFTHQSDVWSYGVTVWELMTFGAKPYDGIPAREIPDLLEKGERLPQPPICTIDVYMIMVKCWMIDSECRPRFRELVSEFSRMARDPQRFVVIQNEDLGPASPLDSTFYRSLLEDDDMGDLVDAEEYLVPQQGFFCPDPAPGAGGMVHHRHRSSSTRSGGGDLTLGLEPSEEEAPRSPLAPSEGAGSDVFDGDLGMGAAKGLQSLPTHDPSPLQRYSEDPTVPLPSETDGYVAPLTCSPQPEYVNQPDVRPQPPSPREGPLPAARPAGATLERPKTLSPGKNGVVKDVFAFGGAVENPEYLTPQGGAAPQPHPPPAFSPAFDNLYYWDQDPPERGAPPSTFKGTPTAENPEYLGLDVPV
Chain of EGFR (P00533 669-1210): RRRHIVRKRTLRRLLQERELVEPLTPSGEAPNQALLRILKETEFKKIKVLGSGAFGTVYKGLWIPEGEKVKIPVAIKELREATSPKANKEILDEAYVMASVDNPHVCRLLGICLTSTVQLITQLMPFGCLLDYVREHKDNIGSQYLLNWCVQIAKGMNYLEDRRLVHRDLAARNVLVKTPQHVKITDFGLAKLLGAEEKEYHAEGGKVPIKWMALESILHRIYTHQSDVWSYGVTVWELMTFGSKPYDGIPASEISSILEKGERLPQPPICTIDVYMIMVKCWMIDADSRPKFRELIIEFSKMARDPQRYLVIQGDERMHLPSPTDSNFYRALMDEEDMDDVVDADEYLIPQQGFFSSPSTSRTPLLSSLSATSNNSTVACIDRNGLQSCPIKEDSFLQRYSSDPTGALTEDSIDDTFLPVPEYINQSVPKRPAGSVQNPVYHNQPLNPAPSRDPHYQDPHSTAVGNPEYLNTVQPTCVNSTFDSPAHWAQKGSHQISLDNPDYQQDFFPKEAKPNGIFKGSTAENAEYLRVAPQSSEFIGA
Protocol for Bax: Bring all reagents, except the human Bax-α Standard, to room temperature for at least 30 minutes prior to opening. The human Bax-α Standard solution should not be left at room temperature for more than 10 minutes. All standards, controls and samples should be run in duplicate. Refer to the Assay Layout Sheet to determine the number of wells to be used and put any remaining wells with the desiccant back into the pouch and seal the ziploc. Store unused wells at 4 °C. Pipet 100 μL of Assay Buffer into the S0 (0 pg/mL standard) wells. Pipet 100 μL of Standards #1 through #6 into the appropriate wells. Pipet 100 μL of the Samples into the appropriate wells. Tap the plate gently to mix the contents. Seal the plate and incubate at room temperature on a plate shaker for 1 hour at ~500 rpm. Empty the contents of the wells and wash by adding 400 μL of wash solution to every well. Repeat the wash 4 more times for a total of 5 washes. After the final wash, empty or aspirate the wells and firmly tap the plate on a lint free paper towel to remove any remaining wash buffer. Pipet 100 μL of yellow Antibody into each well, except the Blank. Seal the plate and incubate at room temperature on a plate shaker for 1 hour at ~500 rpm. Empty the contents of the wells and wash by adding 400 μL of wash solution to every well. Repeat the wash 4 more times for a total of 5 washes. After the final wash, empty or aspirate the wells and firmly tap the plate on a lint free paper towel to remove any remaining wash buffer. Add 100 μL of blue Conjugate to each well, except the Blank. Seal the plate and incubate at room temperature on a plate shaker for 30 minutes at ~500 rpm. Empty the contents of the wells and wash by adding 400 μL of wash solution to every well. Repeat the wash 4 more times for a total of 5 washes. After the final wash, empty or aspirate the wells and firmly tap the plate on a lint free paper towel to remove any remaining wash buffer. Pipet 100 μL of Substrate Solution into each well. Incubate for 30 minutes at room temperature on a plate shaker at ~500 rpm. Pipet 100 μL Stop Solution to each well. Blank the plate reader against the Blank wells, read the optical density at 450 nm. Calculate the average net Optical Density (OD) bound for each standard and sample by subtracting the average Blank OD from the average OD for each standard and sample. Using linear graph paper, plot the Average Net OD for each standard versus Bax concentration in each standard. Approximate a straight line through the points. The concentration of Bax in the unknowns can be determined by interpolation.
Protocol for Bcl-2: Mix all reagents thoroughly without foaming before use. Wash the microwells twice with approximately 300 μL Wash Buffer per well with thorough aspiration of microwell contents between washes. Take caution not to scratch the surface of the microwells. After the last wash, empty the wells and tap microwell strips on absorbent pad or paper towel to remove excess Wash Buffer. Use the microwell strips immediately after washing or place upside down on a wet absorbent paper for not longer than 15 minutes. […] Add 100 μL of Sample Diluent in duplicate to all standard wells and to the blank wells. […] Add 100 μL of Sample Diluent, in duplicate, to the blank wells. Add 80 μL of Sample Diluent, in duplicate, to the sample wells. Add 20 μL of each Sample, in duplicate, to the designated wells. Add 50 μL of diluted biotin-conjugate to all wells, including the blank wells. Cover with a plate cover and incubate at room temperature, on a microplate shaker at 100 rpm if available, for 2 hours. Remove plate cover and empty the wells. Wash microwell strips 3 times as described in step 2. Add 100 μL of diluted Streptavidin-HRP to all wells, including the blank wells. Cover with a plate cover and incubate at room temperature, on a microplate shaker at 100 rpm if available, for 1 hour. Remove plate cover and empty the wells. Wash microwell strips 3 times as described in step 2. […] Pipette 100 μl of mixed TMB Substrate Solution to all wells, including the blanks. Incubate the microwell strips at room temperature (18° to 25°C) for about 15 minutes, if available on a rotator set at 100 rpm. Avoid direct exposure to intense light. The point, at which the substrate reaction is stopped, is often determined by the ELISA reader. Many ELISA readers record absorbance only up to 2.0 O.D. Therefore, the color development within individual microwells must be watched by the person running the assay and the substrate reaction stopped before positive wells are no longer properly detectable. Stop the enzyme reaction by quickly pipetting 100 μL of Stop Solution into each well, including the blank wells. It is important that the Stop Solution is spread quickly and uniformly throughout the microwells to completely inactivate the enzyme. Results must be read immediately after the Stop Solution is added or within one hour if the microwell strips are stored at 2 - 8°C in the dark. Read absorbance of each microwell on a spectrophotometer using 450 nm as the primary wavelength.
Protocol for Cytochrome C: This lysate was diluted in Standard Diluent Buffer over the range of the assay and measured for cytochrome C content. (Cells are Plated in cells/well in a volume of 100µl complete growth medium + 100 µl of the tested compound + 50 µl of 1X biotin conjugated antibody+ 100 µl of 1X streptavidin-HRP+ 100 µL TMB substrate solution of per well in a 96-well plate for 24 hours before assay).
Protocol for EGFR: 5ʹ upstream to the EGFR sequence comprised a sequence that encoded (His)6. Sf-9 cells were infected for 72h for protein expression. The pellets of Sf-9 cells were solubilized in a buffer containing sodium vanadate (100 μM), aprotinin (10 μg/mL), triton (1%), HEPES buffer(50mM), ammonium molybdate (10 μM), benzamidine HCl (16 μg/mL), NaCl (10 mM),leupeptin (10 μg/mL) and pepstatin (10 μg/mL) at 0°C for 20 min at pH 7.4, followed by centrifugation for 20 min. To eliminate the nonspecifically bound material, a Ni-NTA super flow packed column was used to pass through and wash the crude extract supernatant first with 10mM and then with 100 mM imidazole. Histidine-linked proteins were first eluted with 250 and then with 500 mM imidazole subsequent to dialysis against NaCl (50 mM), HEPES (20 mM), glycerol (10%) and 1 μg/mL each of aprotinin, leupeptin and pepstatin for 120 min. The purification was performed either at 4 °C or on ice. To record autophosphorylation level, EGFR kinase assay was carried out on the basis of DELFIA/Time-Resolved Fluorometry. […] Each compound (10 μL) was incubated with recombinant enzyme (10 μL, 5 ng for EGFR, 1:80 dilution in 100 mM HEPES) for 10 min at 25 °C, subsequent to the addition of 5X buffer (10 μL, containing 2 mM MnCl2, 100 μM Na3VO4, 20 mM HEPES and 1 mM DTT) and ATP-MgCl2 (20 μL, containing 0.1 mM ATP and 50 mM MgCl2) and incubation for 1h. The negative and positive controls were included in each plate by the incubation of enzyme either with or without ATP-MgCl2. The liquid was removed after incubation and the plates were washed thrice using a wash buffer. The Europium-tagged antiphosphotyrosine antibody (75 μL, 400 ng) was added to each well followed by incubation of 1h and then washing of the plates using buffer. […] The autophosphorylation percentage inhibition by compounds was calculated using the following equation:
The majority of signals detected by antiphosphotyrosine antibody were from EGFR because the enzyme preparation contained low impurities.
Protocol for HER-2: The ADP-Glo™ Kinase Assay was used for kinase activity detection, related kinases information: HER-2 (ab60866, Abcam), with a concentration of 100 ng/mL. Target compounds were dissolved in DMSO to obtain drug solutions with different concentrations, and the compound concentrations in the final reaction system (100 μL) were 1 nM, 20 nM, 40 nM, 80 nM, and 100 nM, respectively. 10μL of the solution containing compounds was transferred to a 96-well plate, then added 40 μL of 1 × kinase buffer (50 mM HEPES, pH 7.5) to each well, and mixed the mixture in the 96-well plate on a shaker for 10 min. Next, added 25 μL of ADP-Glo™ reagent to the above wells, mixed and incubated for another 40 min. Distributed 10 μL kinase detection reagent to the reaction and incubated for 30 min. Finally, the full-wavelength microplate reader was used to record the OD value.
Protocol for in vitro: as §6

`Cc1ccc(S(=O)(=O)N/N=C/c2c(O)c3ccccc3[nH]c2=O)cc1` [Compound 3d, (E)-N'-((4-hydroxy-2-oxo-1,2-dihydroquinolin-3-yl)methylene)-4-methyl benzenesulfonohydrazide]: the half-maximal inhibitory concentration (IC50) in [1] is 40 ± 3 nM; in [2], 37 ± 3 nM; in data set [3], 43 ± 4 nM; in data set [4], 42 ± 4 nM; at EGFR it was 91 ± 6 nM; against HER-2 it was 38 ± 2 nM. The compound also displayed a concentration for 50% growth inhibition (GI50) in data set [5] of 41 nM. In addition, the “Fold less effective than erlotinib (GI50)” value in data set [5] (ratio to erlotinib GI50 = […] nM) came to 1.3. In addition, the “Caspase-3 Conc” value in the data set with Caspase-3 was found to be 515 ± 5 pg/mL. Moreover, in the data set on Caspase-3 (versus control), the “Caspase-3 Fold change” value is listed as 8.0. Further, the “Caspase-8 Conc” value in the data set on Caspase-8 is given as 2.10 ± 0.20 ng/mL. The “Caspase-8 Fold change” value with Caspase-8 (versus control) worked out at 23. Besides, in the data set with Caspase-9, the “Caspase-9 Conc” value turned out to be 21 ± 3 ng/mL. In addition, the “Caspase-9 Fold change” value in the data set on Caspase-9 (versus control) is 21. Besides, the “Bax Conc” value in the data set with Bax is 310 pg/mL and 310 ± 2 pg/mL. For the same compound, the “Bax Fold change” value in the data set on Bax (versus control) came to 34. Moreover, the “Bcl-2 Conc” value in the data set on Bcl-2 is 0.80 ng/mL. For the same compound, the “Bcl-2 Fold reduction” value in the data set on Bcl-2 (versus control) is on record as 6. For the same compound, the “Cytochrome C Conc” value in the data set with Cytochrome C is 0.65 ng/mL. Further, the “Cytochrome C Fold change” value in the data set on Cytochrome C (versus control) was determined as 13. This compound also showed a viability at 4 days, 50 µM in data set [6] of 91%.
For the compound `Cn1c(=O)c(/C=N/Nc2ccc([N+](=O)[O-])cc2[N+](=O)[O-])c(O)c2ccccc21` [Compound 5e, (E)-3-((2-(2,4-Dinitrophenyl)hydrazono)methyl)-4-hydroxy-1-methyl quinolin-2(1H)-one], the IC50 stood at 76 ± 7 nM in data set [1], 74 ± 7 nM in [2], 76 ± 7 nM in data set [3] and 78 ± 7 nM in data set [4]. Also, the GI50 in data set [5] was determined as 76 nM. Moreover, the viability at 4 days, 50 µM in “in vitro” stood at 87%.
As for `COc1ccc2[nH]c(=O)c(/C=N/Nc3ccc([N+](=O)[O-])cc3[N+](=O)[O-])c(O)c2c1` [Compound 5c, (E)-3-((2-(2,4-Dinitrophenyl)hydrazono)methyl)-4-hydroxy-6-methoxy quinolin-2(1H)-one], the IC50 in data set [1] came out at 65 ± 6 nM; in data set [2], 62 ± 6 nM; in data set [3] it was 69 ± 6 nM; in [4], 68 ± 6 nM. The compound further returned a 50% growth inhibitory concentration (GI50) in [5] of 66 nM. The same compound had a viability at 4 days, 50 µM in “in vitro” of 89%.
Turning to `O=c1[nH]c2ccc(Cl)cc2c(O)c1/C=N/Nc1ccc([N+](=O)[O-])cc1[N+](=O)[O-]` [Compound 5g, (E)-6-Chloro-3-((2-(2,4-dinitrophenyl)hydrazono)methyl)-4-hydroxy quinolin-2(1H)-one], the 50% inhibitory concentration (IC50) in data set [1] came to 81 ± 8 nM; in [2], 78 ± 7 nM; in [3], 82 ± 8 nM; in data set [4], 82 ± 8 nM. For the same compound, the GI50 in [5] was determined as 81 nM. This compound also had a viability at 4 days, 50 µM in “in vitro” of 91%.
On to `Cc1cccc2c(O)c(/C=N/Nc3ccc([N+](=O)[O-])cc3[N+](=O)[O-])c(=O)[nH]c12` [Compound 5d, (E)-3-((2-(2,4-Dinitrophenyl)hydrazono)methyl)-4-hydroxy-8-methyl quinolin-2(1H)-one], for which the IC50 in data set [1] turned out to be 71 ± 7 nM; in [2], 67 ± 6 nM; in [3], 74 ± 7 nM; in [4], 74 ± 7 nM. In [5], this compound registered a GI50 of 72 nM. Also, in the data set “in vitro”, the viability at 4 days, 50 µM came to 92%.
On to `CN[C@@H]1C[C@H]2O[C@@](C)([C@@H]1OC)n1c3ccccc3c3c4c(c5c6ccccc6n2c5c31)C(=O)NC4` [Staurosporine, reference compound], for which, in the data set on Caspase-9, the “Caspase-9 Conc” value is on record as 20 ± 1 ng/mL. The “Bax Conc” value with Bax came out at 290 ± 2 pg/mL; with Bax (listed as staurosporine), 290 pg/mL. Further, the “Bcl-2 Conc” value in the data set on Bcl-2 was determined as 1.00 ng/mL. The “Cytochrome C Conc” value with Cytochrome C is recorded as 0.50 ng/mL.
On to `Cc1ccc2[nH]c(=O)c(/C=N/Nc3ccc([N+](=O)[O-])cc3[N+](=O)[O-])c(O)c2c1` [Compound 5b, (E)-3-((2-(2,4-Dinitrophenyl)hydrazono)methyl)-4-hydroxy-6-methyl quinolin-2(1H)-one], for which the 50% inhibitory concentration (IC50) in data set [1] is 52 ± 5 nM; in [2] it was 50 ± 5 nM; in [3], 54 ± 5 nM; in data set [4] it was 54 ± 5 nM; against EGFR, 106 ± 7 nM; at HER-2, 56 ± 4 nM. In [5], this compound had a GI50 of 53 nM. Moreover, the viability at 4 days, 50 µM in data set [6] worked out at 90%.
For the compound `Cc1ccc2c(O)c(/C=N/Nc3ccc([N+](=O)[O-])cc3[N+](=O)[O-])c(=O)[nH]c2c1` [Compound 5f, (E)-3-((2-(2,4-Dinitrophenyl)hydrazono)methyl)-4-hydroxy-7-methyl quinolin-2(1H)-one], the IC50 in [1] was determined as 85 ± 8 nM; in data set [2] it was 83 ± 8 nM; in data set [3], 86 ± 8 nM; in data set [4], 86 ± 8 nM. In addition, the GI50 in [5] was determined as 85 nM. In addition, in the data set “in vitro”, the viability at 4 days, 50 µM was found to be 90%.

The values are drawn from PMC12481029, “Design, synthesis, antiproliferative assessments, and computational studies of new quinolin-2(1H)-ones as dual EGFR/HER-2 inhibitors” (Frontiers in Chemistry, 2025).
